Holding throughout (assay): DTP human tumour cell line panel, 48 h
For assay [1], the system named is DMS-114.
Assay [2] has as its system OVCAR-4.
Assay [3] concerns SR.
For assay [4], the system named is MOLT-4.
Assay [5] has as its system TK-10.
The subject of assay [6] is HOP-62.
Assay [7] has as its system SN12C.
Assay [8] relates to SW-620.
The test system of assay [9] is UACC-62.
Assay [10] relates to ACHN.
Assay [11] has as its system OVCAR-8.
The test system of assay [12] is EKVX.
Assay [13] concerns HOP-92.
Assay [14] relates to SK-MEL-2.
The test system of assay [15] is SK-MEL-28.
Assay [16] deals with DU-145.
The test system of assay [17] is T47D.
Assay [18] relates to NCI/ADR-RES.
For assay [19], the system named is BT-549.
Assay [20] deals with PC-3.

The GI50 is the concentration that inhibits growth by half.

Structures are written as SMILES.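 96-well plates; 48 h exposure; 5 concentrations. Endpoints by linear interpolation between flanking doses. Not reached: highest tested concentration assigned. GI50: concentration for 50% inhibition of growth.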 Activity calls are given as the source filed them. No stated cut-off is given here; in the data, active = GI50 up to about 1.1 µM and inactive = higher. Non-standard residues stand in square brackets, D forms with d. Residues, ends and D or L forms follow the SMILES beside them. ξ: configuration not given here. *: point of attachment. NMeF = CN[C@@H](Cc1ccccc1)C(=O)O; ξNMeV = CNC(C(=O)O)C(C)C; Boc = CC(C)(C)OC(=O)*; OBn = c1ccc(CO*)cc1 A value given as a limit tells only on which side of the number the result lay.

As for `C=CCn1c(=S)sc2c(O)ncnc21`, the GI50 in assay [1], in assay [2], in assay [3], in [4], in assay [5] and in assay [6] was > 100 µM (inactive) in each case. Moreover, the GI50 in [7], in [8], in assay [9], in assay [10], in assay [11] and in [12] was > 100 µM (inactive) in each case. The results for the GI50 in assay [13] and in [14] were 94 µM (inactive) and > 100 µM (inactive), respectively.
`COC(=O)C(C(=O)C(=O)Nc1ccc([N+](=O)[O-])cc1)c1nc2ccc([N+](=O)[O-])cc2nc1O` (configuration not stated): the GI50 was 68.2 µM (inactive) in assay [1]; > 100 µM (inactive) in assay [2]; > 100 µM (inactive) in assay [3]; > 100 µM (inactive) in assay [4]; > 100 µM (inactive) in [5]; > 100 µM (inactive) in assay [6]. The GI50 in assay [7] is > 100 µM (inactive); in assay [15], > 100 µM (inactive); in assay [8], > 100 µM (inactive); in assay [9] it was 63.1 µM (inactive); in assay [10], > 100 µM (inactive); in assay [11], > 100 µM (inactive). Moreover, the GI50 in [12], in assay [13] and in assay [14] was > 100 µM (inactive) in each case.
On to `CCOC(=O)/C(=C/c1cccc(OC)c1)N(CC)CC`, for which the GI50 in [1], in assay [2], in [3], in assay [4], in assay [5] and in assay [6] was > 100 µM (inactive) each time. Moreover, the GI50 in [15], in [8], in [9], in assay [10], in [11] and in assay [12] was > 100 µM (inactive) in each case. The GI50 in assay [13] and in assay [14] was > 100 µM (inactive) each time.
Take `C=CCCCCCC(O)C(O)C/C=C\C/C=C\CC` (configuration not stated): the GI50 in assay [1] was > 16.8 µM (inactive); in assay [2], > 18.8 µM (inactive); in assay [3], > 9.66 µM (inactive); in [4], > 14.9 µM (inactive); in assay [5], > 18.8 µM (inactive); in [6], > 16.8 µM (inactive). In addition, the GI50 in assay [7], in [15], in [8], in assay [9], in assay [10] and in [11] was > 18.8 µM (inactive) in each case. Besides, the GI50 in assay [12], in assay [13] and in assay [14] was > 18.8 µM (inactive) each time.
Regarding `C1COCCN1.S=C(S)N1CCOCC1`, the GI50 is 0.279 µM (active) in assay [1]; 6.9 µM (inactive) in [2]; 1.04 µM (active) in assay [3]; 1.47 µM (inactive) in assay [4]; > 100 µM (inactive) in assay [16]; > 100 µM (inactive) in assay [5]. In addition, the GI50 in assay [17] was > 100 µM (inactive); in [6] it was 92.3 µM (inactive); in assay [7], > 100 µM (inactive); in assay [15], 10.3 µM (inactive); in [8], 2.55 µM (inactive); in assay [9], 3.8 µM (inactive). The GI50 is > 100 µM (inactive) in assay [10]; > 100 µM (inactive) in assay [18]; > 100 µM (inactive) in [11]; > 100 µM (inactive) in assay [19]; > 100 µM (inactive) in assay [12]; 30 µM (inactive) in [13]. The GI50 in assay [20] is > 100 µM (inactive); in [14], 36.4 µM (inactive).
As for `COC1=C(NC(C)=O)C(=O)c2nc3n(c2C1=O)CCC3`, the GI50 was 12.2 µM (inactive) in [1]; 16.7 µM (inactive) in assay [2]; 36.9 µM (inactive) in [3]; 4.06 µM (inactive) in [4]; 20.8 µM (inactive) in assay [16]; 30.3 µM (inactive) in [5]. In addition, the GI50 was 34.3 µM (inactive) in [17]; 20.7 µM (inactive) in assay [6]; 17.9 µM (inactive) in assay [7]; 18.7 µM (inactive) in assay [15]; 20.9 µM (inactive) in assay [8]; 18.2 µM (inactive) in [9]. Also, the GI50 in [10] is 19.9 µM (inactive); in assay [18], 19.5 µM (inactive); in assay [11], 16.7 µM (inactive); in assay [12], 19.5 µM (inactive); in assay [13], 13.2 µM (inactive); in [20] it was 34.8 µM (inactive). Further, in assay [14], the GI50 was 17.7 µM (inactive).
In the case of `COc1ccc2nc3cc(Cl)ccc3c(Sc3ccc([N+](=O)[O-])cc3C)c2c1`, the GI50 in [1], in [2], in [3], in [4], in assay [5] and in assay [6] was > 100 µM (inactive) in each case. Further, the GI50 is 74.3 µM (inactive) in assay [7]; > 100 µM (inactive) in [15]; > 100 µM (inactive) in assay [8]; > 100 µM (inactive) in [9]; > 100 µM (inactive) in [10]; > 100 µM (inactive) in assay [11]. Besides, the GI50 in [12], in assay [13] and in [14] was > 100 µM (inactive) each time.
For `CC(C)C(C(=O)N1CCC[C@@H]1C(=O)OCc1ccccc1)N(C)C(=O)C(C(C)C)N(C)C(=O)[C@H](Cc1ccccc1)N(C)C(=O)[C@H](NC(=O)OC(C)(C)C)C(C)C` (some centres not stated) (Boc-[dV][NMeF][ξNMeV][ξNMeV][dP]-OBn), the GI50 is 8.57 µM (inactive) in [1]; > 54.2 µM (inactive) in [2]; > 29.8 µM (inactive) in [3]; 7.94 µM (inactive) in assay [4]; > 100 µM (inactive) in assay [5]; > 100 µM (inactive) in assay [6]. Besides, the GI50 was > 100 µM (inactive) in assay [7]; > 100 µM (inactive) in assay [15]; > 100 µM (inactive) in assay [8]; > 100 µM (inactive) in assay [9]; 16.7 µM (inactive) in assay [10]; > 100 µM (inactive) in assay [11]. For the same compound, the values for the GI50 in assay [12], in assay [13] and in assay [14] were > 65.8 µM (inactive), 68.4 µM (inactive) and > 100 µM (inactive), respectively.

For the origin of these results see ChEMBL document CHEMBL1201862, “PubChem BioAssay data set” (2004).
